One data set concerns U373MG cells. Description: MTT survival of U373MG cells. It counts as cell-based, human. Conditions: U373; 6 days; H-1PV 5 pfU/cell, 25 μM TMZ. Here is the method:
The percentage of surviving U373MG cells [%] 3 days (A) and 6 days (B) after treatment with H-1PV (Virus), combined treatment with H-1PV and TMZ (V+TMZ), and treatment with TMZ only (TMZ) is shown.
(§1) Initially, the rates of survival of the cell lines used in the study were determined using MTT assays in order to check whether these cell lines are sensitive for H-1PV infection and Temozolomide (TMZ) treatment. In addition, the rates of survival after combined treatment with H-1PV and TMZ were determined. […] The graphs of FIGS. 7-11 depict the results after 3 and 6 days, respectively. After 3 days of treatment distinct effects can already be observed. After 6 days the experiments were terminated since control cells were already confluent. In addition, after 6 days further analyses could not be carried out due to the very low rate of survival (depending on the particular cell line).

In another data set the test system is U343MG cells. Briefly: MTT survival of U343MG cells. Conditions: U343; 6 days; H-1PV 5 pfU/cell, 25 μM TMZ. The class given is cell-based, human. As for the experimental part:
The percentage of surviving U343MG cells [%] 3 days (A) and 6 days (B) after treatment with H-1PV (Virus), combined treatment with H-1PV and TMZ (V+TMZ), and treatment with TMZ only (TMZ) is shown.
as §1

For a further data set, the system named is U87MG cells. Briefly: MTT survival of U87MG cells. It counts as cell-based, human. The following applies: 3 days, H-1PV 5 pfU/cell, 25 μM TMZ. Here is the method: The percentage of surviving U87MG cells [%] 3 days (A) and 6 days (B) after treatment with H-1PV (Virus), combined treatment with H-1PV and TMZ (V+TMZ), and treatment with TMZ only (TMZ) is shown.
as §1

The nature of data set [1]: Toxicological assessment of blood markers in PDAC-bearing rats. The class given is in vivo, Lewis rats. Conditions: rat model. Here is the method: Blood samples were analyzed for: (A) red blood cell (RBC), platelet, and white blood cell (WBC) counts and related parameters; (B) liver (aspartate amino transferase [ASAT], alanine amino transferase [ALAT]) and kidney (Creatinine) markers. The data shown are means with SD bars.
H-1PV was inoculated intratumorally (i.t.). Blood samples were taken from animal tail vein 2 weeks after the last therapeutic treatment. Toxicological markers were assayed in Strasbourg University Hospital using automated clinical laboratory analysis (Biochemical multiparametric device Biochime ADVIA 160, Siemens, Cergy Pontoise, France).

In the next data set the test system is T3M-4 cells. Description: MTT cytotoxicity of H-1PV, gemcitabine and their combination, T3M-4. It counts as cell-based, human. Here is the method: (§2) Survival was measured using MTT assays performed 72 h after infection, in comparison with mock-treated cultures (100%), and is inversely expressed as cell death rate. The data presented are means from 3 independent experiments carried out in quadruplicates.
(§3) For cytotoxicity assessment, cells were seeded in 96-well plates at a density of 2×10^3 cells per well and treated as indicated in the Figure Legends. Cell viability was determined by the colorimetric MTT (3-(4,5-dimethylthiazolyl-2)-2,5-diphenyltetrazolium bromide) assay, as recommended by the manufacturer (Sigma, Deisenhofen, Germany).
(§4) Means and standard deviations (SD) were calculated from triplicate in vitro experiments. […] The isobologram was created from the data obtained for the combination of the two agents. […] CI=1 represents the conservation isobologram and indicates additive effects. CI values below 1 indicate higher than the expected additive effect (synergy).
Drug sensitivity of parental and resistant cells was assessed in both MTT and clonogenic survival assays.

A further data set has as its system Panc-1 cells. Description: MTT cytotoxicity of H-1PV, gemcitabine and their combination, Panc-1. Conditions: Homo sapiens. The class given is cell-based. Here is the method: as §2, §3, §4
The subject of a further data set is MiaPaCa-2 cells. Description: MTT cytotoxicity of H-1PV, gemcitabine and their combination, MiaPaCa-2. The class given is cell-based, human. As for the experimental part:
as §2, §3, §4

The next data set concerns BxPC3 cells. Briefly: MTT cytotoxicity of H-1PV, gemcitabine and their combination, BxPC3. It counts as cell-based. Conditions: Homo sapiens. As for the experimental part: as §2, §3, §4
The subject of another data set is HA-RPC cells. Description: MTT cytotoxicity on rat PDAC cells. It counts as cell-based. The following applies: compared with the human PDAC cells. As for the experimental part:
as §3

For a further data set, the system named is Colo357 cells. Description: MTT cytotoxicity of H-1PV, gemcitabine and their combination, Colo357. The class given is cell-based. Conditions: Homo sapiens. As for the experimental part: as §2, §3, §4
Data set [2] deals with intrapancreatic HA-RPC tumors. Briefly: Survival of PDAC-bearing rats after combined gemcitabine and H-1PV. It counts as in vivo, Lewis rats. The following applies: vs. mock treatment or gemcitabine monotherapy. As for the experimental part: Animal survival was monitored over a period of 100 days and is presented as Kaplan-Meyer curves, with the median survival and P values indicated below.
Male Lewis rats (Janvier, Le Genest Saint Isle, France) weighing 180-200 g were used for pancreatic carcinoma implantation. 5.10^6 HA-RPC cells were injected in the pancreatic parenchyma. Tumor progression is confined to the pancreatic tail for the first 3 weeks after implantation, leading to lymph node invasion during the 4th week. Liver metastases appear at weeks 5-6 and death with lung metastasis occurs within weeks 6-9.[17] Animals were kept under conventional conditions (temperature 22±2° C., relative humidity 55±10%, dark-light rhythm of 12 hr) with unrestricted access to a balanced pellet diet and water. Animal experiments were performed according to the French and European Community directives for animal care (number 86/609/EEC of Nov. 24, 1986). […]
Mean and standard deviations from triplicate in vitro experiments were calculated. Difference in tumour volume, determined in vivo through mCT-scan size measurements, was tested using a one-way analysis of variance followed by a parametric Student's unpaired t test as Bartlett's test indicated homogeneity of variance. […] The survival curves were generated using the Kaplan-Meier method, and the differences between the curves were assessed by the log-rank test. […]

Another data set relates to SU86.86 cells. Description: MTT cytotoxicity of H-1PV, gemcitabine and their combination, SU86.86. It counts as cell-based, human. As for the experimental part:
as §2, §3, §4

The values that follow come from US8414883B2, “Parvovirus cancer therapy and combination with chemotherapy” (priority 2007, dated 2013).

Structures are written as SMILES. Entries after “also recorded” stand apart in the source; their conditions may differ. Read-outs that look alike come from different tables or passages of the source.

Take `Cn1nnc2c(C(N)=O)ncn2c1=O` [TMZ, Temozolomide]: the “cells lysed / cytotoxic effect” value in the data set on U373MG cells was “no cytotoxic effect; also recorded: did not result in cell death”. The cells killed result in the data set on U343MG cells was “more than 80%”. In addition, in the data set on U87MG cells, the “cells lysed / killed” value is reported as “about 20%”.
As to `Nc1ccn([C@@H]2O[C@H](CO)[C@@H](O)C2(F)F)c(=O)n1` [gemcitabine], the “bilirubin, ASAT, and ALAT levels” value in data set [1] (2 weeks after last treatment) is given as “elevated”. Besides, the “reticulocyte and monocyte levels” value in data set [1] (2 weeks after last treatment) is reported as “drop”. Also, the Creatinine levels result in data set [1] (kidney clearance) was “remained stable”. The EC50 was 1.2 ng/mL in the data set on T3M-4 cells (Homo sapiens, T3M4, read-out: EC50 gemcitabine monotherapy (in brackets)); 400 ng/mL in the data set with Panc-1 cells (PANC-1, read-out: EC50 mono. gemcitabine); 200 ng/mL in the data set with Panc-1 cells (read-out: EC50 comb. 1 gemcitabine, Panc-1, combined with H-1PV MOI 1); 60 ng/mL in the data set on Panc-1 cells (read-out: EC50 comb. 2 gemcitabine, Panc-1, combined with H-1PV MOI 10); 9 ng/mL with MiaPaCa-2 cells (Homo sapiens, MIA PaCa-2, read-out: EC50 gemcitabine monotherapy (in brackets)); 20 ng/mL in the data set on BxPC3 cells (BXPC-3, read-out: EC50 comb. 1 gemcitabine, BxPC3, combined with H-1PV MOI 1). The EC50 in the data set on BxPC3 cells (BXPC-3, read-out: EC50 comb. 2 gemcitabine, BxPC3, combined with H-1PV MOI 10) was determined as 7 ng/mL; in the data set on BxPC3 cells (BXPC-3, read-out: EC50 mono. gemcitabine), 25 ng/mL; in the data set with Colo357 cells (COLO357, read-out: EC50 mono. gemcitabine), 1.5 ng/mL; in the data set with Colo357 cells (read-out: EC50 comb. 1 gemcitabine, Colo357, combined with H-1PV MOI 1), 1.3 ng/mL; in the data set on Colo357 cells (read-out: EC50 comb. 2 gemcitabine, Colo357, combined with H-1PV MOI 10), 0.6 ng/mL; in the data set with SU86.86 cells (Homo sapiens, SU.86.86, read-out: EC50 gemcitabine monotherapy (in brackets)), 2.5 ng/mL. The “EC75 comb. 1 gemcitabine” value was 2.4 ng/mL in the data set on T3M-4 cells (T3M-4, combined with H-1PV MOI 1); 18 ng/mL in the data set with MiaPaCa-2 cells (MiaPaCa-2, combined with H-1PV MOI 1); 8.0 ng/mL with SU86.86 cells (SU86.86, combined with H-1PV MOI 1). For the same compound, the “EC75 comb. 2 gemcitabine” value in the data set with T3M-4 cells (T3M-4, combined with H-1PV MOI 10) was found to be 1.5 ng/mL; in the data set with MiaPaCa-2 cells (MiaPaCa-2, combined with H-1PV MOI 10), 2.0 ng/mL; in the data set on SU86.86 cells (SU86.86, combined with H-1PV MOI 10), 1.3 ng/mL. Moreover, the EC75 mono. gemcitabine with T3M-4 cells (T3M-4, gemcitabine alone, MTT) turned out to be 2.5 ng/mL; with MiaPaCa-2 cells (MiaPaCa-2, gemcitabine alone, MTT), 30 ng/mL; in the data set with SU86.86 cells (SU86.86, gemcitabine alone, MTT) it was 17 ng/mL. In addition, the “sensitivity to virus and gemcitabine toxicity” value in the data set on HA-RPC cells is reported as “same range of sensitivity”. Further, in data set [2], the “survival of PDAC-bearing rats” value is “transient protection”.

One may read the EC50 as the concentration giving half of the maximal effect.
